# Read-outs that look alike come from different tables or passages of the source.
# What was measured:
# Assay in all cases: IncuCyte live cell imaging of cell viability, Red-labeled cell line
# Format in all cases: cell-based
# SIG-M5 = conditions: Homo sapiens, read-out: Inhibition of Cell Viability EC50
# Method: (§1) Derivation of Red-labeled Acute Myeloid Leukemia Cell Lines: Twelve cell lines, including AML-193, HL-60, KG-1, ML-2, MOLM-13, MV-4-11, NOMO-1, OCI-AML2, OCI-AML3, SIG-M5, TF-1, and THP-1, were stably transduced with Red lentivirus. Cells were plated in 6-well plates in growth media, incubated with 8 µg/mL polybrene (EMD Millipore Cat no. TR-1003-G) followed by infection with CellPlayer™ NucLight™ Red-lentiviral particles (Essen Biosciences Cat no. 4478) at a multiplicity of infectivity (MOI) of 0.5 to 2.5 for 24 hours. MOI refers to the ratio of virus particles to cells. Virus-containing media was replaced with fresh growth media and incubated for an additional 24 to 48 hours, followed by selection with Zeocin (500 to 2000 μg/mL), a derivative of bleomycin (Life Technologies-Invitrogen Cat no. R250-01). Cells were selected with fresh Zeocin every 3 to 4 days for 3 to 8 weeks. Cells were periodically viewed using fluorescent microscopy for nuclear-restricted red fluorescence. Zeocin selection was terminated once the population was confirmed to stably fluoresce red. All Red-labeled cell lines were acclimated to EMEM containing 20% FBS, with or without GM-CSF supplementation, allowing for optimal live cell imaging.
# (§2) Incubation of Cell Cultures with Compound 1: Compound 1 was provided for studies by Celgene chemistry group at a stock concentration of 30 mM in 20 μL dimethyl sulfoxide (DMSO) frozen. Costar 96-well cell culture plates (Corning Cat no. 3595) were coated with 100 μL of 10 µg/mL fibronectin (Sigma-Aldrich Cat no. F1141) for 4 hours at 37° C. and immediately used or refrigerated overnight for later use. Cells (3000 to 6000 cells) were plated in growth medi in fibronectin-coated 96-well plates and incubated for a minimum of a few hours to overnight. Cells were incubated with a 12-point concentration response in triplicate with Compound 1 ([…]) including DMSO and Media controls. A 3-fold serial dilution of Compound 1 starting from a concentration of 200 μM in 0.6% DMSO (diluted in Media) was performed. For most sensitive cell lines, a 3-fold serial dilution of Compound 1 starting from a concentration of 20 μM in 0.6% DMSO (diluted in media) was performed. A volume of 5 μL or 10 μL for each dilution was added to 100 μL or 200 μL cells, respectively (0.3% DMSO final) and incubated for live cell imaging.
# (§3) Live Cell Imaging on IncuCyte Zoom: Following incubation of cells with Compound 1, diluted Caspase 3/7 reagent (Essen Biosciences Cat no. 4440) is added to each well. The Caspase-3/7 reagent couples the activated caspase-3/7 recognition motif (DEVD) to NucView™488, a DNA intercalating dye. The cleavage of substrate by activated caspase-3/7 results in the release of the DNA dye and green fluorescent staining of nuclear DNA. This allows imaging of cells undergoing caspase-3/7 mediated apoptosis over time. Caspase-3/7 activation was quantified using the IncuCyte™ ZOOM basic analyzer. Red-labeled cell lines were also imaged over time using the IncuCyte™ ZOOM basic analyzer, for determination of both cell doubling time and Compound 1 effect on cell viability. Experiments were performed at least two times in each cell line.
# (§4) Next, a 4 parameter log-logistic model was used to determine relative EC50 at each time point by the ‘drm’ function from the R ‘drc’ package (Ritz C, Streibig J C. Bioassay Analysis using R. J. Statist. Software 2005; 12(5):1-22). Goodness of fit was measured by R squared (coefficient of determination or the amount of variation explained by the model fit) of ≥80%, and EC50 parameter was assessed by having a ratio of standard error to the parameter of ≤40%, and the presence of at least one concentration point above and below the reported EC50.
# (§5) Twelve Red-labeled human AML cell lines, established as described above, were incubated with Compound 1 dose range (0 to 10 μM) and Red fluorescence or Object count was imaged over time, as described above. […]
# AML-193 = conditions: Homo sapiens, Red-labeled AML-193, read-out: Inhibition of Cell Viability EC50
# Method: as §1, §2, §3, §4, §5
# KG-1 = conditions: Homo sapiens, Red-labeled KG-1, read-out: Inhibition of Cell Viability EC50
# Method: as §1, §2, §3, §4, §5
# Nomo-1 = conditions: Homo sapiens, Red-labeled NOMO-1, read-out: Inhibition of Cell Viability EC50
# Method: as §1, §2, §3, §4, §5
# MOLM-13 = conditions: Homo sapiens, Red-labeled MOLM-13, read-out: Inhibition of Cell Viability EC50
# Method: as §1, §2, §3, §4, §5
# THP-1 = conditions: Homo sapiens; Red-labeled THP-1; 96 hr; read-out: Inhibition of Cell Viability EC50
# Method: as §1, §2, §3, §4, §5
# OCI-AML3 = conditions: Homo sapiens, read-out: Inhibition of Cell Viability EC50
# Method: as §1, §2, §3, §4, §5
# TF-1 = conditions: Homo sapiens, Red-labeled TF-1, read-out: Inhibition of Cell Viability EC50
# Method: as §1, §2, §3, §4, §5
# MV4-11 = conditions: Homo sapiens, Red-labeled MV4-11, read-out: Inhibition of Cell Viability EC50
# Method: as §1, §2, §3, §4, §5
# OCI-AML2 = conditions: Homo sapiens, read-out: Inhibition of Cell Viability EC50
# Method: as §1, §2, §3, §4, §5
# ML-2 = conditions: Homo sapiens, Red-labeled ML-2, read-out: Inhibition of Cell Viability EC50
# Method: as §1, §2, §3, §4, §5
# HL-60 = conditions: Homo sapiens, Red-labeled HL-60, read-out: Inhibition of Cell Viability EC50
# Method: as §1, §2, §3, §4, §5
structure (smiles),measurement,setting,value
"O=C1CCC(N2Cc3cc(CNC(=O)C(F)(F)c4ccc(Cl)cc4)ccc3C2=O)C(=O)N1 (stereo not drawn) [Compound 1, 2-(4-chlorophenyl)-N-((2-(2,6-dioxopiperidin-3-yl)-1-oxoisoindolin-5-yl)methyl)-2,2-difluoroacetamide]",EC50,SIG-M5; 72 hr,156 nM
same,EC50,SIG-M5; 96 hr,178 nM
same,EC50,AML-193; 24 hr,10 nM
same,EC50,AML-193; 48 hr,4 nM
same,EC50,AML-193; 72 hr,3 nM
same,EC50,AML-193; 96 hr,2 nM
same,EC50,KG-1; 48 hr,7 nM
same,EC50,KG-1; 72 hr,7 nM
same,EC50,KG-1; 96 hr,7 nM
same,EC50,Nomo-1; 48 hr,19 nM
same,EC50,Nomo-1; 72 hr,17 nM
same,EC50,Nomo-1; 96 hr,17 nM
same,EC50,MOLM-13; 48 hr,143 nM
same,EC50,MOLM-13; 72 hr,208 nM
same,EC50,MOLM-13; 96 hr,248 nM
same,EC50,THP-1,61 nM
same,EC50,"OCI-AML3; OCI-AML-3, 72 hr",180 nM
same,EC50,"OCI-AML3; OCI-AML-3, 96 hr",186 nM
same,EC50,TF-1; 48 hr,30 nM
same,EC50,TF-1; 72 hr,36 nM
same,EC50,TF-1; 96 hr,58 nM
same,EC50,MV4-11; 48 hr,40 nM
same,EC50,MV4-11; 72 hr,27 nM
same,EC50,MV4-11; 96 hr,26 nM
same,EC50,OCI-AML2; 24 hr,387 nM
same,EC50,OCI-AML2; 48 hr,83 nM
same,EC50,OCI-AML2; 72 hr,42 nM
same,EC50,OCI-AML2; 96 hr,40 nM
same,EC50,ML-2; 72 hr,4 nM
same,EC50,ML-2; 96 hr,4 nM
same,EC50,HL-60; 48 hr,9 nM
same,EC50,HL-60; 72 hr,7 nM
same,EC50,HL-60; 96 hr,6 nM
